{"source": "ChEMBL document CHEMBL1201862", "about": "“PubChem BioAssay data set” (2004)", "format_in_all_cases": "functional", "key": {"[1]": {"biological_target": "Focal adhesion kinase 1 (Homo sapiens, UniProt Q05397)", "sequence (Q05397 whole entry)": "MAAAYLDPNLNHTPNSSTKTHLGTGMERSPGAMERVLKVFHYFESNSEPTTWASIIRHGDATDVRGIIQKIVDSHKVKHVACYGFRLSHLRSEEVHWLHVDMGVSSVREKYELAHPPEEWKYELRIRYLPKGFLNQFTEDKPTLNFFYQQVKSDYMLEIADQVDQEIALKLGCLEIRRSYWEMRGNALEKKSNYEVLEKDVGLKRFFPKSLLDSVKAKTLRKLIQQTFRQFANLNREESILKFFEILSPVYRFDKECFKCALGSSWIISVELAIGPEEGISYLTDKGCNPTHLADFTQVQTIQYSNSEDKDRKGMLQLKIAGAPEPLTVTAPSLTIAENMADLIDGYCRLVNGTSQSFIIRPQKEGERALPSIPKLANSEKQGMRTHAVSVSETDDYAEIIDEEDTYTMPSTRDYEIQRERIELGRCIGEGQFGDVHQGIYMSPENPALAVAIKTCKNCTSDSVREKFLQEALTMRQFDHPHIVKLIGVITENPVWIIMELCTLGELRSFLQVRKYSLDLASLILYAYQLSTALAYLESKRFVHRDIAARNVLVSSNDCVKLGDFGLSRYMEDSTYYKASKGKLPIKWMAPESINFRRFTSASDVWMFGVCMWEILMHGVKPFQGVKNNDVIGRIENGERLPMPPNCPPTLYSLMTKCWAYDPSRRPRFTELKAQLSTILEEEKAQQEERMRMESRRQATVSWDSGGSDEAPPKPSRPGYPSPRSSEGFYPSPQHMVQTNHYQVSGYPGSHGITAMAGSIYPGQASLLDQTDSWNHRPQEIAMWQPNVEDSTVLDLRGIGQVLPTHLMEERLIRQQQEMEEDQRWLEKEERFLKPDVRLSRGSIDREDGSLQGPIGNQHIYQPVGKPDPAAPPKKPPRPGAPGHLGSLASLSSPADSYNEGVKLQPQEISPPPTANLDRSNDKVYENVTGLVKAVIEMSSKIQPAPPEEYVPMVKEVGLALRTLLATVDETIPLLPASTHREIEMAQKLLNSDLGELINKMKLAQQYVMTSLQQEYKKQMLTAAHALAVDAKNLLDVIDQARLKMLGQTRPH"}, "[2]": {"biological_target": "Cyclin-dependent kinase 19 (Homo sapiens, UniProt Q9BWU1)", "sequence (Q9BWU1 whole entry)": "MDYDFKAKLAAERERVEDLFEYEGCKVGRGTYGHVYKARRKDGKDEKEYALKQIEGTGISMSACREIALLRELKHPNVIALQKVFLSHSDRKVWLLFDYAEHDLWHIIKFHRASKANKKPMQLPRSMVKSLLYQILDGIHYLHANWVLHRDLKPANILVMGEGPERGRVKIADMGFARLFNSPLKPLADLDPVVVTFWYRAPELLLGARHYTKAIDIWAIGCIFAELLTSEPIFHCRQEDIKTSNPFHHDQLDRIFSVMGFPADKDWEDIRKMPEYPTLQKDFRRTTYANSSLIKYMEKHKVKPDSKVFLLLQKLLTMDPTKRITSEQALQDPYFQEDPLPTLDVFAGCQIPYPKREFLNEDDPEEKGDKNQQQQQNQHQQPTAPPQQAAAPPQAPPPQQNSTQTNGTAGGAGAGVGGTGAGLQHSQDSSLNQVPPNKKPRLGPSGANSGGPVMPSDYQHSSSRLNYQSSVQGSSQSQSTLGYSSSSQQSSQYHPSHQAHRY", "test": "Navigating the Kinome. Panel member name: CDC2L6"}, "[3]": {"test": "viability loss in Vero cells – cell-based, purified and synthesized samples, set 8, cytotoxicity control for M. tuberculosis inhibitor project (AID 602431)", "details": "Mycobacterium tuberculosis"}, "[4]": {"test": "HepG2 cell cytotoxicity, cytotoxicity control, set 6 (AID 602432)", "details": "Mycobacterium tuberculosis"}, "[5]": {"test": "THP-1 cell cytotoxicity, cytotoxicity control, set 6 (AID 602433)", "details": "Mycobacterium tuberculosis"}}, "note": "The source made the active and inactive calls. Unless noted, the calls are words filed in the database; no cut-off is given here."}
{"smiles": "COc1cccc(C(=O)Nc2cccc(-c3nc4sccn4c3-c3ccnc(Nc4ccc(N5CCOCC5)cc4)n3)c2)c1", "values": [{"measurement": "Ki", "setting": "[1]", "result": "0.631 µM (active)"}, {"measurement": "Ki", "setting": "[2]", "result": "10 µM (active)"}]}
{"smiles": "O=C(NCc1ccc(C(=O)N2CCC(c3ccccc3)CC2)cc1)NC1CCCCC1", "values": [{"measurement": "CC50", "setting": "[3]", "result": "82.5 µM (active)"}, {"measurement": "CC50", "setting": "[4]", "result": "> 50 µM (inconclusive)"}, {"measurement": "CC50", "setting": "[5]", "result": "65.8 µM (active)"}]}
